Reference: patent US5734081A, “Arylthio compounds” (Warner-Lambert Company, priority 1995, dated 1998)
Where two headings read alike, the source gives them in different places.

What was measured:
[1] = target: T1, HIV-1 Nucleocapsid Protein (NCp7) (Human immunodeficiency virus type 1 group M subtype B, UniProt P12493); assay: Zinc extrusion assay (TSQ fluorescence) from the zinc fingers of HIV-1 nucleocapsid protein (NCp7); assay type: biochemical; settings: 10 μM compound, 2.8 μM NCp7, pH 7.4, 26° C., 90 minutes
T1 construct: The NCp7 protein containing 2 Zn-fingers and 2 Zn ions is incubated with drug
From the text: The compounds of the present invention cause the extrusion of zinc from the nucleocapsid protein (NCp7) of HIV-1. The NC protein is highly conserved among all retroviruses (South T., Blake P., et al., Biochemistry, 1990;29:7786) and is essential for viral infectivity (Aldovini A. and Young R., J. Virology, 1990;64:1920 and Gorelick R., Nigida S., et al., J. Virology, 1990;64:3207). The zinc is normally held in NC proteins by 1 or 2 zinc fingers. In the case of HIV-1, 2 zinc fingers are present (Summers M., South T., et al., Biochemistry, 1990;29:329) and are involved specifically with the PSI site on viral RNA which controls the packaging of viral RNA. Interference of this packaging causes the formation of non-infectious virions (Dannull J., Surovoy A., et al., EMBO, 1994;13:1525). It has previously been shown that compounds that cause zinc extrusion have potent anti-HIV activity in multiple cell lines and against all retroviruses (Rice W., Schaeffer C., et al., Nature, 1993;361:473).
A fluorescence-based assay has been developed to monitor the ejection of zinc from purified HIV-1 NCp7. The fluorophore, N-(6-methoxy-8-quinolyl)-p-toluenesulfonamide (TSQ), has an increased fluorescent signal upon bonding zinc ion in solution. The NCp7 protein containing 2 Zn-fingers and 2 Zn ions is incubated with drug causing the extrusion of Zn ions. The released Zn is then sequestered by the TSQ and the increased fluorescence monitored relative to control. […] Fluorescence (excitation 355 nm emission 400 nm) was monitored versus time. Controls were the NCp7 under assay conditions without drug, and apo NCp7 (no Zn) with drug. The % Zn extrusion was calculated based on the actual fluorescence measured divided by the fluorescence of all theoretical Zn extruded (5.6 μM)×100.
Table 1 below presents data for several invention compounds evaluated in the zinc extrusion assay described above.

HIV-1 [2] = assay: HIV H9 cell assay, anti-HIV-1 activity; assay type: cell-based; settings: Human immunodeficiency virus 1, H9, 168 h, read-out: EC50 (Effective Concentration which protects cells from viral cytopathic effects)
From the text: Another test system utilized to evaluate the invention compounds is called HIV H9 assay. The HIV H9 cell assay measures the inhibitor concentration required to suppress HIV-1 virus replication. In this system, viral growth occurs through multiple rounds of the life-cycle. Any suppression of the replication kinetics results in a geometric decrease in virus production. As a result, this assay is a sensitive means of measuring the ability of a compound to inhibit HIV-1 viral replication.
(§1) The H9 T-cell line is batch infected with HIV virus at an M0I of 0.01. After 2 hours absorption, the cells are washed, resuspended in RPMI-1640/10% fetal calf serum, and seeded at […] of a 96-well plate. A duplicate plate of uninfected H9 cells is prepared for the cytotoxicity assay. Drugs are serially diluted 1/3.16 in DMSO, transferred to media at an 8× concentration, and then added to the cultures in triplicate. The final DMSO concentration of 0.002 (0.2%).
(§2) Viral production is measured by RT assay and cytotoxicity is measured by XTT assay at 7 days post-infection. The RT assay is performed as a modification of Borroto-Esoda and Boone, J. Virol., 1991;65:1952-1959 and quantitated using a Molecular Dynamics Phosphoimager with Imagequant software. The XTT assay is performed as a modification of Roehm, et al., J. Immuno. Methods., 1991;142:257-265 and quantitated using a molecular Devices Thermomax plate reader with Softmax software.
(§3) Data is electronically transferred to a Microsoft Excell spreadsheet for analysis. The RT assay values equivalent to 50% and 90% inhibition of virus production are calculated from the untreated controls. The concentrations of inhibitor required to produce these values (IC50 and IC90) are interpolated from data points flanking these RT activities. The XTT assay values equivalent to 50% cytotoxicity are calculated from the untreated controls. The concentrations of inhibitor required to produce this value are interpolated from data points flanking these XTT values.

[3] = H9 cell cytotoxicity (XTT assay, uninfected cells); assay type: cell-based; settings: human, drug alone, read-out: IC50 (Inhibitory Concentration where drug alone inhibits cell growth)
Description: as §1, §2, §3

HIV-1 [4] = assay: CEM cell assay, anti-HIV-1 activity; assay type: cell-based; settings: Human immunodeficiency virus 1, CCRF-CEM, HIV-1, 6 or 7 days, read-out: EC50 (Effective Concentration which protects cells from viral cytopathic effects)
From the text: The test systems utilized to establish the antiviral activity of the arylthio compounds of this invention are well recognized in the art and are routinely employed for such purpose. For example, the assay utilized to evaluate the compounds activity against the HIV virus is that employed by the U.S. National Cancer Institute as described by Weislow O. S., et al., J. Natl. Cancer Inst., 1989;81:577-586, incorporated herein by reference.
The procedure is designed to detect agents acting at any stage of the virus reproductive cycle. The assay basically involves the killing of T4 lymphocytes by HIV. Small amounts of HIV are added to cells, and at least two complete cycles of virus reproduction are necessary to obtain the required cell killing. Agents which interact with virions, cells, or virus gene-products to interfere with viral activities will protect cells from cytolysis. The system is automated in several features to accommodate large numbers of candidate agents, and is generally designed to detect anti-HIV activity. However, compounds which degenerate or are rapidly metabolized in the culture conditions may not show activity in this screen.
(§4) Yet another test system employed to determine antiviral activity is called the CEM cell assay.
(§5) T4 lymphocytes (CEM cell line) are exposed to HIV at a virus to cell ratio approximately 0.05, and plated along with noninfected control cells in 96-well microliter plates.
(§6) The candidate agent is dissolved in dimethyl sulfoxide (unless otherwise noted), then diluted 1:200 in cell culture medium. Further dilutions (half-log10) are prepared before adding to an equal volume of medium containing either infected or noninfected cells. Cultures are incubated at 37° in a 5% carbon dioxide atmosphere for 6 or 7 days. The tetrazolium salt, XTT, is added to all wells, and cultures are incubated to allow formazan color development by viable cells (J. National Cancer Institute, 1989;81:577-586). Individual wells are analyzed spectrophotometrically to quantitate formazan production, and in addition are viewed microscopically for detection of viable cells confirmation of protective activity.
(§7) Drug-tested virus-infected cells are compared with drug-treated noninfected cells and with other appropriate controls (untreated infected and untreated noninfected cells, drug-contain wells without cells, etc.) on the same plate. Data are reviewed in comparison with other tests done at the same time and a determination about activity is made.

[5] = CEM cell growth inhibition (XTT, noninfected cells); assay type: cell-based; settings: human, CEM Cell Assay, drug alone, read-out: IC50 (Inhibitory Concentration where drug alone inhibits cell growth)
Description: as §4, §5, §6, §7

HIV-1RF = assay: Anti-HIV activity, HIV-1RF in CEM cells; assay type: cell-based; settings: Human immunodeficiency virus 1, CCRF-CEM
Description: as §4, §5, §6, §7
(§8) The compounds of the invention were also evaluated against various other HIV strains and cell lines utilizing the assay methodology described above. The compounds were additionally evaluated against clinical isolates of HIV strains.

HIV-1IIIb [6] = assay: Anti-HIV activity, HIV-1IIIb in CEM cells; assay type: cell-based; settings: Human immunodeficiency virus 1, CCRF-CEM
Description: as §4, §5, §6, §7, §8

HIV-16R = assay: Anti-HIV activity, HIV-16R in MT-4 cells; assay type: cell-based, HIV-1
Description: as §8

HIV-1A17 [7] = assay: Anti-HIV activity, HIV-1A17 in MT-4 cells; assay type: cell-based
Description: as §8

HIV-1N119 = assay: Anti-HIV activity, HIV-1N119 in CEM cells; assay type: cell-based; settings: Human immunodeficiency virus 1, CCRF-CEM
Description: as §4, §5, §6, §7, §8

HIV-2ROD = assay: Anti-HIV activity, HIV-2ROD in CEM cells; assay type: cell-based; settings: Human immunodeficiency virus 2, CCRF-CEM
Description: as §4, §5, §6, §7, §8

SIV = assay: Antiviral activity, SIV in CEM cells; assay type: cell-based; settings: Simian immunodeficiency virus, CCRF-CEM
HIV-1WEIO = assay: Anti-HIV activity, clinical isolate HIV-1WEIO in PBL; assay type: cell-based
Description: as §8

E. coli B90 = assay: Antibacterial activity, microtitration; assay type: cell-based; settings: Gram (-)
Description: (§9) The compounds are additionally useful as broad spectrum antibiotics. Minimum inhibitory concentrations were determined utilizing microtitration techniques described by Heifetz, et. al., Antimicrobial Agents and Chemotherapy, 1974, Vol. 6, 124. The data establish that the compounds have activity against a broad spectrum of bacteria, both Gram +and Gram -. Accordingly, the compounds can be utilized to treat and prevent bacterial diseases in animals and humans. They can also be used as industrial disinfectants, for example, to reduce bacterial growth in shower stalls and public areas.

E. coli MC4100 = assay: Antibacterial activity, microtitration; assay type: cell-based; settings: Gram (-)
Description: as §9

Stah. aureus RBI = assay: Antibacterial activity, microtitration; assay type: cell-based; settings: Gram (+)
Description: as §9

Strep. pyogenes c-203 = assay: Antibacterial activity, microtitration; assay type: cell-based; settings: Gram (+)
Description: as §9

HIV-1IIIb [8] = assay: Anti-HIV activity, HIV-1IIIb in MT-2 cells; assay type: cell-based; settings: Human immunodeficiency virus 1, MT2; MT-2, HIV-1IIIb
Description: as §8

HIV-1A17 [9] = assay: Anti-HIV activity, HIV-1A17 in MT-2 cells; assay type: cell-based; settings: Human immunodeficiency virus 1, MT2
Description: as §8

[10] = Human immunodeficiency virus 1, MT4, read-out: EC50 (AZT)
[11] = Human immunodeficiency virus 1, MT4

## CCC(C)C(NC(=O)c1ccccc1SSc1ccccc1C(=O)NC(C(=O)O)C(C)CC)C(=O)O (racemic) [Example 5, 2-[[2-[(1-Carboxy-2-methylbutylcarbamoyl)phenyldisulfanyl]-benzoyl]-amino]-3-methylpentanoic acid]
[1]
  % Zinc Extrusion Relative to Control: 87%
HIV-1 [2]
  EC50: 1.4 µM
[3]
  CC50 at 168 h: 62 µM
HIV-1 [4]
  EC50: 10.5 µM
[5]
  CC50: 105 µM

## Cc1cn([C@H]2C[C@H](N=[N+]=[N-])[C@@H](CO)O2)c(=O)[nH]c1=O [AZT, azidothymidine, reference compound]
HIV-1RF; read-out: EC50 (AZT)
  EC50: 0.0006 µM
HIV-1IIIb [6]; read-out: EC50 (AZT)
  EC50: 0.0045 µM
HIV-16R; [10]
  EC50: > 1 µM
HIV-1A17 [7]; [10]
  EC50: 0.114 µM
HIV-1N119; read-out: EC50 (AZT)
  EC50: 0.0444 µM
HIV-2ROD; read-out: EC50 (AZT)
  EC50: 0.00141 µM
SIV; read-out: EC50 (AZT)
  EC50: 0.245 µM
HIV-1WEIO; Human immunodeficiency virus 1, read-out: EC50 (AZT)
  EC50: 0.003 µM

## CC(=O)NS(=O)(=O)c1ccc(NC(=O)c2ccccc2SSc2ccccc2C(=O)Nc2ccc(S(=O)(=O)NC(C)=O)cc2)cc1 [Example 4, 2,2'-Dithiobis-N-[4-[(acetylamino)sulfonyl]phenyl]benzamide]
[1]
  % Zinc Extrusion Relative to Control: 87%
HIV-1 [2]
  EC50: 4.8 µM
[3]
  CC50 at 168 h: 27 µM
HIV-1RF; CEM, HIV-1RF, read-out: EC50
  EC50: 1.5 µM
HIV-1IIIb [6]; CEM, HIV-1IIIb, read-out: EC50
  EC50: 5.2 µM
HIV-16R; [11]
  EC50: 1.9 µM
HIV-1A17 [7]; [11]
  EC50: 8.9 µM
HIV-1N119
  EC50: 4.6 µM
HIV-2ROD; CEM, HIV-2ROD, read-out: EC50
  EC50: 3 µM
SIV; read-out: EC50
  EC50: 3.4 µM
HIV-1WEIO; Human immunodeficiency virus 1
  EC50: 5.2 µM
E. coli B90
  Minimum inhibitory concentration: 32
E. coli MC4100
  Minimum inhibitory concentration: 128
Stah. aureus RBI
  Minimum inhibitory concentration: 256
Strep. pyogenes c-203
  Minimum inhibitory concentration: 64

## NS(=O)(=O)c1ccc(NC(=O)c2ccccc2S)cc1 [Example 6, 2-Thio-N-(4-sulfamoylphenyl)benzamide]
HIV-1 [2]
  EC50: 2.5 µM
[3]
  CC50 at 168 h: 28 µM
HIV-1 [4]
  EC50: 5.2 µM
[5]
  CC50: > 100 µM
E. coli B90
  Minimum inhibitory concentration: 32
E. coli MC4100
  Minimum inhibitory concentration: 64
Stah. aureus RBI
  Minimum inhibitory concentration: 128
Strep. pyogenes c-203
  Minimum inhibitory concentration: 64

## CC(=O)Nc1ccc(S)c(C(N)=O)c1 [Example 10, 5-Acetylamino-2-thiobenzamide]
HIV-1 [2]
  EC50: 5.4 µM
[3]
  CC50 at 168 h: > 100 µM

## O=C(Nc1ccc(S(=O)(=O)Nc2ncccn2)cc1)c1ccccc1SSc1ccccc1C(=O)Nc1ccc(S(=O)(=O)Nc2ncccn2)cc1 [Example 15, 2,2'-Dithiobis[N-[4-[(2-pyrimidinylamino)sulfonyl]phenyl]-benzamide]]
[1]
  % Zinc Extrusion Relative to Control: 72%
HIV-1 [2]
  EC50: 2 µM
[3]
  CC50 at 168 h: 22 µM

## NS(=O)(=O)c1ccc(NC(=O)c2ccc(SSc3ccc(C(=O)Nc4ccc(S(N)(=O)=O)cc4)cc3)cc2)cc1 [Reference Compound, 4,4dithiobis-4sulfamoyl benzanilide, reference compound]
[1]
  % Zinc Extrusion Relative to Control: 0%
HIV-1 [2]
  EC50: > 100 µM
[3]
  CC50 at 168 h: > 100 µM
HIV-1 [4]
  EC50: > 100 µM
[5]
  CC50: > 100 µM

## O=c1[nH]cnc2c1ncn2[C@H]1CC[C@@H](CO)O1 [ddI, dideoxyinosine, reference compound]
HIV-1IIIb [8]
  EC50: 6 µM
HIV-1A17 [9]
  EC50: 4.6 µM
